In series [1] the test system is model mice of oxygen-induced retinal angiogenesis. As to the kind of experiment: Exemplary experiment 4: nitrite versus general-purpose nitrogen monoxide donor drugs, retinal avascular area. It counts as in vivo, C57BL/6J mouse. How it is done:
Preparation of the model mice of oxygen-induced retinal angiogenesis, fluorescent imaging of retinal vessels and a retinal flat-mount were operated according to exemplary experiment 1.
(§1) Areal ratio of retinal avascular area was calculated pursuant to exemplary experiment 1.

For series [2] the following is noted: in vivo; cited from earlier work.
Series [3] concerns model mice of oxygen-induced retinal angiogenesis. As to the kind of experiment: Exemplary experiment 2: suppression of pathologic neovascularization (pathological vessels extending into the vitreum). The settings on record: for number of pathological vessels breaking the inner limiting membrane and extending into the vitreum: 15 or 75 μmol/kg once per day P7-P16, P17, FIG. 2, versus physiological saline. It counts as in vivo, C57BL/6J mouse. As for the experimental part:
The effect of sodium nitrate and sodium nitrite for suppression of pathologic neovascularization by oxygen-induced retinal vascularized model was evaluated.
(§2) Sodium nitrate or sodium nitrite as a test compound was dissolved in physiological saline for injection to prepare a test compound injection of […].
C57BL/6J mouse (SLC) was used as an experimental animal. The model mice of oxygen-induced retinal angiogenesis were prepared according to exemplary experiment 1. Sodium nitrate or sodium nitrite was injected to a cervical region hypodermically once per day in amount of 15 or 75 μmol/kg for ten days from the 7th day (P7) to the 16th day (P16) after birth. In addition, physiological saline as controls was similarly injected hypodermically instead of test compound.
On the 17th day after birth (P17), the mice were euthanised by overdose of pentobarbital, and eyes were removed together with optic nerve. The eyes were washed in physiological saline, excessive tissues were excised, and the eyes were thus fixed in a 4% paraformaldehyde phosphate buffer for 12 hours. After the fixation, the eyes were dehydrated by immersing in a graded ethanol series of 70-100% sequentially and were embedded in paraffin.

Series [4] can be described thus: Exemplary experiment 6: plasma concentration of nitrate ions after administration. The settings on record: P12, average. As for the experimental part:
as §2
C57BL/6J mouse (SLC) was used as an experimental animal. The model mice of oxygen-induced retinal angiogenesis were prepared according to exemplary experiment 1. […] Thereafter, isoflurane was used to anesthetize the mice, and 150 μl of blood was collected from the abdominal aorta over time. Plasma concentration of nitrate ions was measured by ion exchange chromatography using a normal phase column under the following conditions:
Conditions for Ion Exchange Chromatography • Separation column: Asahipak NH2P-50 4E (4.6 mm×250 mm) • Guard column: Inertsil NH2 (5 μm) (4 mm×10 mm) • Mobile phase: 10 mM of sodium dihydrogenphosphate, 150 mM of sodium perchlorate, 5.0 • Flow rate: 0.7 ml/min • Detection wavelength: 210 nm

Series [5] has as its system model mice of oxygen-induced retinal angiogenesis. To be noted: for retinal avascular area reduced as compared to control group: 15 or 75 μmol/kg once per day P7-P16, versus physiological saline.
Description: C57BL/6J mouse (SLC) was used as an experimental animal. […] Neonatal mice were bred from the 7th day (P7) to the 12th day (P12) after birth together with a parent mouse in a cage of high levels of oxygen (75±1% of O2) controlled by oxygen control equipment (PRO-OX110, produced by Reming Bioinstruments Co) to provide high levels of oxygen (75±1% of O2). Retinal angiogenesis was induced by breeding under normoxic condition (21% of O2) from the 12th day to the 17th day after birth. […] In addition, physiological saline as controls was similarly injected hypodermically instead of test compound.
Fifty micro grams per animal of fluorescein-conjugated dextran (FITC-dextran; M.W. 2×10^6, produced by SIGMA) were systemically perfused from the left ventricle under deep anesthesia with pentobarbital on the 17th day after birth (P17). After the perfusion, eyes of mouse were removed and fixed in a 4% paraformaldehyde phosphate buffer for 4-12 hours. After the fixation, the cornea and the lens were excised from eye, and the residual hyaloid artery was removed by micro tweezers. The retina was separated under a microscope, and subsequently set flat and embedded in [sequence] (produced by Vector Laboratories Inc.) for preparation of a retinal flat-mount.
Flat mounted retinas were imaged with a high sensitivity CCD camera under a fluorescent inverted microscope (Olympus IX71). A value of total retinal area and a value of retinal avascular area in obtained image were converted to numeric data by Photoshop CS4 extended (Adobe), and a value of areal ratio of retinal avascular area in comparison with the value of total retinal area was calculated by the following equation: value of areal ratio of retinal avascular area=value of retinal avascular area (μm^2)/value of total retinal area (μm^2)×100
Series [6] shares this test system. As to the kind of experiment: Exemplary experiment 3: regulation of retinal angiogenesis, administration from start of angiogenesis (P12). It counts as in vivo, C57BL/6J mouse. The settings on record: for value of areal ratio of retinal avascular area / value of retinal avascular area: 15 μmol/kg hypodermically once per day P12-P16, average; for reduction of retinal avascular area in comparison with a control group: 15 μmol/kg, administered from the start of retinal angiogenesis (P12). As for the experimental part:
For the model mice of oxygen-induced retinal angiogenesis, retinal angiogenesis is induced by providing 75% oxygen followed by breeding in room air during P12-P17.
Sodium nitrate or sodium nitrite as a test compound was dissolved in physiological saline for injection to prepare a test compound injection of […].
Preparation of the model mice of oxygen-induced retinal angiogenesis, fluorescent imaging of retinal vessels and a retinal flat-mount were operated according to exemplary experiment 1. However sodium nitrate or sodium nitrite was injected to a cervical region hypodermically once per day in amount of 15 μmol/kg for […] from the 12th day (P12) to the 16th day (P16) after birth. In addition, physiological saline as controls was similarly injected hypodermically instead of test compound for the same period of time.
as §1

The next series has as its system methemoglobinemia. To be noted: reported for Rodentia; cited from earlier work.
Series [7] has as its system model mice of oxygen-induced retinal angiogenesis. The experiment in a line: Exemplary experiment 5: nitrite versus anti-VEGF antibody, retinal avascular area. It counts as in vivo, C57BL/6J mouse. The settings on record: 15 μmol/kg hypodermically once per day P7-P16, average. How it is done:
Using the model mice of oxygen-induced retinal angiogenesis, a comparison was made about retinopathy treatment effect between nitrite and an anti-VEGF antibody used for treatment of progressive colorectal cancer, age-related macular degeneration and so on.
Sodium nitrite as a test compound was dissolved in physiological saline for injection to prepare a test compound injection of 3 μmol/ml. For a comparative example, a murine monoclonal anti-VEGF antibody (produced by SANTACRUZ BIOTECHNOLOGY, INC.) was condensed to prepare 500 μg IgG/ml of an injection for the comparative example.
Preparation of the model mice of oxygen-induced retinal angiogenesis, fluorescent imaging of retinal vessels and a retinal flat-mount were operated according to exemplary experiment 1. Sodium nitrite was injected to a cervical region hypodermically once per day in amount of 15 μmol/kg for ten days from the 7th day (P7) to the 16th day (P16) after birth. The anti-VEGF antibody was injected through the corneal limbus to the vitreous body with a microsyringe equipped with a 33G hypodermic needle, by cutting mice eyelids open when oxygenation ended (on the 12th day alter birth).
as §1

Setting [8] is: 20 μmol/kg hypodermically once per day P7-P16, average.
[9] abbreviates: 75 μmol/kg hypodermically once per day P7-P16, evaluated P17, average.
The mark [10] stands for this setting: 15 μmol/kg hypodermically once per day P7-P16, average.
[11] abbreviates: 15 μmol/kg hypodermically once per day P7-P16, evaluated P17, average.

These results are taken from patent publication US8974836B2, “Angiogenesis regulating composition and method for regulating angiogenesis” (Air Water, Inc., priority 2009, dated 2015).

SMILES strings stand for the structures. Where two headings read alike, the source gives them in different places.

Take `O=[N+]([O-])OCC(CO[N+](=O)[O-])O[N+](=O)[O-]` [NTG, nitroglycerin]: in series [1] (setting [8]), the “value of areal ratio of retinal avascular area” value is 21.36% and the “value of retinal avascular area” value was 1456421.33 μm^2. For the same molecule, in series [1] (SNP 2 μmol/kg, NTG 20 μmol/kg versus sodium nitrite 15 μmol/kg, P7-P16), the “retinal avascular area increased in comparison with a group administered with nitrite” value is “approximately 3.3 times”. In addition, the “reduction of avascular area (typical symptom of retinopathy), in words” value in series [1] (SNP 2 μmol/kg, NTG 20 μmol/kg, once per day P7-P16) is reported as “Neither SNP nor NTG was observed to reduce”.

`O=[N+]([O-])[O-].[Na+]` [sodium nitrate]: in series [2], the “nitrate having entered systemic circulation secreted in saliva” value was “approximately 25%” and the “portion of nitrate in saliva reduced to nitrite by dental bacteria” value is “approximately 30%”. Also, the “number of pathological vessels breaking the inner limiting membrane and extending into the vitreum” value in series [3] was “decreased”. Moreover, the “maximum plasma concentration of nitrate ions after single-dose administration” value in series [4] (15 μmol/kg subcutaneously in cervical region) was 135.38 µmol/L. Moreover, the “maximum plasma concentration of nitrate ions after single-dose administration” value in series [4] (75 μmol/kg subcutaneously in cervical region) was determined as 194.9 µmol/L. In series [5] (setting [9]), the “value of areal ratio of retinal avascular area” value is given as 12.7% and the “value of retinal avascular area” value turned out to be 842271.02 μm^2. In addition, the “retinal avascular area reduced as compared to control group” value in series [5] was “approximately 20%”. In series [6], the “value of areal ratio of retinal avascular area” value is recorded as 8.76%, the “value of retinal avascular area” value is reported as 506451.72 μm^2 and the “reduction of retinal avascular area in comparison with a control group” value was “approximately 40%”.

For the molecule `O=NO` [sodium nitrite], the “value of areal ratio of retinal avascular area” value in series [1] (setting [10]) is recorded as 6.44%; in series [7] it was 9.3%; in series [7] (listed as nitrite), 9.3%; in series [5] (setting [11]) it was 6.44%; in series [5] (setting [9]) it was 10.01%; in series [6], 9.3%. For the same molecule, the “value of retinal avascular area” value in series [1] (setting [10]) is listed as 417863.94 μm^2; in series [7], 621218.70 μm^2; in series [5] (setting [11]), 417863.94 μm^2; in series [5] (setting [9]), 571705.28 μm^2; in series [6], 621218.70 μm^2. In addition, in series [3] (75 μmol/kg once per day P7-P16, P17), the “pathological vessels reduced as compared with a control” value is “approximately 30%”. The “number of pathological vessels breaking the inner limiting membrane and extending into the vitreum” value in series [3] is reported as “decreased”. The “maximal no-effect dose for methemoglobinemia” value in the series with methemoglobinemia is recorded as 84 mg/kg/day. In addition, the “retinal avascular area reduced as compared to control group” value in series [5] is listed as 40-60%. In addition, the “reduction of retinal avascular area in comparison with a control group” value in series [6] is “approximately 40%”.
